Measurements from patent publication US12006321B2, “Substituted pyrazolo[1,5-a]pyrimidines as apelin receptor agonists” (Sanford Burnham Prebys Medical Discovery Institute, priority 2017, dated 2024).

These compounds were tested against T1, human apelin receptor (APJ, APLNR) (Homo sapiens, UniProt P35414) (assay: cell-based cAMP assay (TR-FRET) in Chinese hamster ovary cells expressing the apelin receptor). Details: EC50 = 50% of control (apelin-13, 1 nM) response; cAMP in CHO cells, 0.5 h incubation; read-out: Potency Category.
T1 construct: host or cells: Chinese hamster ovary (CHO) cells, stably integrated receptor
T1 sequence (P35414 1-380): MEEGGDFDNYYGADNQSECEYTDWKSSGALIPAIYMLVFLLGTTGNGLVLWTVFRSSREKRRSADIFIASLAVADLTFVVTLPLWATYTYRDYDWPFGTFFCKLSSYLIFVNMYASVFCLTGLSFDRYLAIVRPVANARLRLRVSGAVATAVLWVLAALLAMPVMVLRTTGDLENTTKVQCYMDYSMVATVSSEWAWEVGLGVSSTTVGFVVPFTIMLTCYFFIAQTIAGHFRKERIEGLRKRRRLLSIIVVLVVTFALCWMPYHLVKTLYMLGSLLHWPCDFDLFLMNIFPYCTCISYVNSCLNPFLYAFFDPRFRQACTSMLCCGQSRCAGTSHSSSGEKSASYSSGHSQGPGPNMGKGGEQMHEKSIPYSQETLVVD
Procedure, shortened: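 CHO cells stably expressing human APJ were forskolin-stimulated, then exposed to compound (0.0-100 μM, ≤1% DMSO) for 0.5 h. Lysate cAMP read by competitive TR-FRET immunoassay; EC50 and efficacy expressed relative to 1 nM apelin-13, four-parameter fit over ≥10 concentrations.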

| Compound | EC50 [nM] |
| --- | --- |
| Cc1cccc(C)c1-c1c(C)nn2c(Nc3ccc(OC(F)(F)F)cc3)cc(C(=O)O)nc12 [Compound 144, 3-(2,6-dimethylphenyl)-2-methyl-7-{[4-(trifluoromethoxy)phenyl]amino}-8-hydropyrazolo[1,5-a]pyrimidine-5-carboxylic acid] | > 500 |
| COCc1nn2c(C(C)C)cc(C(=O)OC)nc2c1-c1c(C)cccc1C [Compound 88, methyl 3-(2,6-dimethylphenyl)-2-(methoxymethyl)-7-(methylethyl)-8-hydropyrazolo[1,5-a]pyrimidine-5-carboxylate] | > 500 |
| Cc1cccc(C)c1-c1c(C)nn2c(-c3ccccc3)cc(C(=O)O)nc12 [Compound 83, 3-(2,6-dimethylphenyl)-2-methyl-7-phenyl-8-hydropyrazolo[1,5-a]pyrimidine-5-carboxylic acid] | > 500 |
| Cc1nn2c(C(C)C)cc(C(=O)O)nc2c1-c1ccc(F)cc1 [Compound 8, 3-(4-fluorophenyl)-2-methyl-7-(methylethyl)-8-hydropyrazolo[1,5-a]pyrimidine-5-carboxylic acid] | > 500 |
| CNC(=O)c1cc(C(C)C)n2nc(C)c(-c3ccccc3)c2n1 [Compound 15, N-methyl[2-methyl-7-(methylethyl)-3-phenyl(8-hydropyrazolo[1,5-a]pyrimidin-5-yl)]carboxamide] | > 500 |
| CCOC(=O)c1cc(C(C)C)n2nc(C)c(-c3cccc(Cl)c3)c2n1 [Compound 30, ethyl 3-(3-chlorophenyl)-2-methyl-7-(methylethyl)-8-hydropyrazolo[1,5-a]pyrimidine-5-carboxylate] | > 500 |
| Cc1cccc(C)c1-c1c(C)nn2c(N3CCN(C)CC3)cc(C(=O)O)nc12 [Compound 106, 3-(2,6-dimethylphenyl)-2-methyl-7-(4-methylpiperazinyl)-8-hydropyrazolo[1,5-a]pyrimidine-5-carboxylic acid] | > 500 |
| COC(=O)c1cc(Nc2ccc(OC)cc2)n2nc(C)c(-c3c(C)cccc3C)c2n1 [Compound 135, methyl 3-(2,6-dimethylphenyl)-7-[(4-methoxyphenyl)amino]-2-methyl-8-hydropyrazolo[1,5-a]pyrimidine-5-carboxylate] | > 500 |
| CCOC(=O)c1cc(N2CCN(C)CC2)n2nc(C)c(-c3c(C)cccc3C)c2n1 [Compound 108, ethyl 3-(2,6-dimethylphenyl)-2-methyl-7-(4-methylpiperazinyl)-8-hydropyrazolo[1,5-a]pyrimidine-5-carboxylate] | > 500 |
| CCOC(=O)c1cc(C(C)C)n2nc(C)c(-c3c(F)cccc3F)c2n1 [Compound 105, ethyl 3-(2,6-difluorophenyl)-2-methyl-7-(methylethyl)-8-hydropyrazolo[1,5-a]pyrimidine-5-carboxylate] | > 500 |
| CCOC(=O)c1cc(C(C)C)n2nc(C)c(-c3ccc(C)cc3C)c2n1 [Compound 44, ethyl 3-(2,4-dimethylphenyl)-2-methyl-7-(methylethyl)-8-hydropyrazolo[1,5-a]pyrimidine-5-carboxylate] | > 500 |
| Cc1nn2c(C3CC3)cc(C(=O)O)nc2c1-c1ccccc1 [Compound 6, 7-cyclopropyl-2-methyl-3-phenyl-8-hydropyrazolo[1,5-a]pyrimidine-5-carboxylic acid] | > 500 |
| CCOC(=O)c1cc(CC)n2nc(C)c(-c3c(C)cccc3C)c2n1 [Compound 58, ethyl 3-(2,6-dimethylphenyl)-7-ethyl-2-methyl-8-hydropyrazolo[1,5-a]pyrimidine-5-carboxylate] | > 500 |
| Cc1nn2c(C(C)C)cc(C(=O)O)nc2c1-c1c(Cl)cccc1Cl [Compound 115, 3-(2,6-dichlorophenyl)-2-methyl-7-(methylethyl)-8-hydropyrazolo[1,5-a]pyrimidine-5-carboxylic acid] | > 500 |
| CCOC(=O)c1cc(C(C)C)n2nc(C)c(-c3c(C)cccc3Br)c2n1 [Compound 129, ethyl 3-(2-bromo-6-methylphenyl)-2-methyl-7-(methylethyl)-8-hydropyrazolo[1,5-a]pyrimidine-5-carboxylate] | > 500 |
| Cc1ccc(Nc2cc(C(=O)O)nc3c(-c4c(C)cccc4C)c(C)nn23)cc1 [Compound 141, 3-(2,6-dimethylphenyl)-2-methyl-7-[(4-methylphenyl)amino]-8-hydropyrazolo[1,5-a]pyrimidine-5-carboxylic acid] | > 500 |
| Cc1cccc(C)c1-c1c(C(=O)N(C)C)nn2c(C(C)C)cc(C(=O)O)nc12 [Compound 101, 2-(N,N-dimethylcarbamoyl)-3-(2,6-dimethylphenyl)-7-(methylethyl)-8-hydropyrazolo[1,5-a]pyrimidine-5-carboxylic acid] | > 500 |
| Cc1cccc(C)c1-c1c(C)nn2c(C(C)C)cc(CO)nc12 [Compound 62, [3-(2,6-dimethylphenyl)-2-methyl-7-(methylethyl)-8-hydropyrazolo[1,5-a]pyrimidin-5-yl]methan-1-ol] | > 500 |
| CCOC(=O)c1cc(C(C)C)n2nc(C)c(-c3ccccc3OC)c2n1 [Compound 29, ethyl 3-(2-methoxyphenyl)-2-methyl-7-(methylethyl)-8-hydropyrazolo[1,5-a]pyrimidine-5-carboxylate] | > 500 |
| CCc1cc(C(=O)O)nc2c(-c3ccccc3)c(C)nn12 [Compound 34, 7-ethyl-2-methyl-3-phenyl-8-hydropyrazolo[1,5-a]pyrimidine-5-carboxylic acid] | > 500 |
| Cc1ccc(-c2c(C)nn3c(C(C)C)cc(C(=O)O)nc23)cc1 [Compound 5, 2-methyl-7-(methylethyl)-3-(4-methylphenyl)-8-hydropyrazolo[1,5-a]pyrimidine-5-carboxylic acid] | > 500 |
